{
  "source": "patent US20120328713A1",
  "about": "“Articles of Manufacture with Improved Anti-microbial Properties” (priority 2009, published 2012)",
  "key": {"[1]": {"experiment": "Stability of partially dehydrated sodium diperiodatoargentate in the presence of saline", "format": "physicochemical", "conditions": "compared with the fully hydrated compound", "procedure": "Fully hydrated sodium diperiodatoargentate was made, ground using a mortar and pestle, and spread in an even thin layer in a pre-heated (120° C.) non-reactive container (e.g. glass or ceramics). The thin layer was necessary to prevent areas of poor heat transfer. The container was then placed in an oven at 120° C. for 15 minutes. After 15 minutes, the sample was removed from the oven and transferred to a sealed container (glass vial), which was then stored in a dessicator in the dark at room temperature to prevent the material from adsorbing water.\nRelative to the fully hydrated sodium diperiodatoargentate, the partially dehydrated sodium diperiodatoargentate is darker in color and is a much finer powder (which will be advantageous for incorporation into polymers)."}, "[2]": {"test_system": "Pseudomonas aeruginosa biofilms", "experiment": "Log reduction and MBEC assays on biofilms", "format": "cell-based", "conditions": "4 hours"}, "[3]": {"test_system": "bacterial speck (Pseudomonas syringae pv. tomato)", "experiment": "Field trial, foliar spray against bacterial speck in tomatoes (Example 18)", "format": "in vivo, tomatoes (Lycopersicon esculentum)", "conditions": "after three treatment sprays"}, "[4]": {"test_system": "bacterial canker (Clavibacter michiganensis pv. michiganensis)", "experiment": "Field trial, foliar spray against bacterial canker in tomatoes (Example 20)", "format": "in vivo, tomatoes (Lycopersicon esculentum)", "procedure": "(§1) Silver (III) periodate was tested as a bactericidal foliar spray treatment against bacterial canker (Clavibacter michiganensis pv. michiganensis) in tomatoes (Lycopersicon esculentum).\n(§2) See Example 18 for Preparation of Tomato Seed; Preparation of Field; Seeding; Plot Maintenance; Preparation of Spray Treatment Solutions and Inoculum; Spray Treatment Procedure; and Data Collection."}, "[5]": {"test_system": "bacterial canker (Clavibacter michiganensis pv. michiganensis)", "experiment": "Field trial, foliar spray against bacterial canker in tomatoes (Example 19)", "format": "in vivo, tomatoes (Lycopersicon esculentum)", "conditions": "after three treatment sprays; full dose", "procedure": "as §1, §2"}, "[6]": {"test_system": "Escherichia coli (ATCC 25922)", "experiment": "MBEC P&G assay in dilutions of feces", "format": "cell-based", "procedure": "The challenge time was 4 hours. The tested concentration range for both silver compounds was 500 to 7.8 ppm."}, "[7]": {"test_system": "Escherichia coli (ATCC 25922)", "experiment": "MBEC P&G assay in dilutions of urine", "format": "cell-based", "procedure": "(§3) The effects of silver (III) periodate and silver nitrate in different dilutions of urine (0.001%, 0.01%, 0.1%, 1%, 10%, 50%) using the MBEC™ P&G assay were tested against Escherichia coli (ATCC 25922)The challenge time was 4 hours. The tested concentration range for both silver compounds was 500 to 7.8 ppm."}, "P. aeruginosa ATCC 27853": {"test_system": "P. aeruginosa ATCC 27853", "experiment": "Silver (III) periodate efficacy testing in the presence of Cl-, SO4 2-, and PO4 3-", "format": "cell-based", "conditions": "30 minutes, 1.5-200 ppm", "procedure": "Silver (III) periodate was tested for efficacy in water, 1% NaCl, 1% K2SO4, and 1% K2HPO4 solutions, and compared with silver nitrate. The test solutions were tested against P. aeruginosa ATCC 27853. The challenge time was 30 minutes. Silver (III) periodate and silver nitrate were tested at range of 1.5-200 ppm."}, "[8]": {"test_system": "Escherichia coli (ATCC 25922)", "experiment": "MBEC P&G assay in dilutions of mucin", "format": "cell-based", "procedure": "as §3, with “mucin (2.0%, 1.0%, 0.5%, 0.25%, 0.12%, 0.06%) were tested” for “urine (0.001%, 0.01%, 0.1%, 1%, 10%, 50%)”, “assay” for “assay were tested”"}, "[9]": {"test_system": "Escherichia coli ATCC 25922", "experiment": "MBEC P&G assay in dilutions of human serum", "format": "cell-based", "procedure": "(§4) The effects of silver (III) periodate and silver nitrate were tested in different dilutions of human serum (0.001%, 0.01%, 0.1%, 1%, 10%, 50%) using the MBECTM P&G assay against relevant clinical human pathogens Escherichia coli, Staphylococcus aureus (MRSA), and Candida albicans. The challenge time was 4 hours. The tested concentration range for the silver compounds was 500 to 7.8 ppm."}, "[10]": {"test_system": "Candida albicans ATCC 28367", "experiment": "MBEC P&G assay in dilutions of human serum", "format": "cell-based", "conditions": "all concentrations of human serum", "procedure": "as §4"}, "[11]": {"test_system": "Staphylococcus aureus (MRSA) 456", "experiment": "MBEC P&G assay in dilutions of human serum", "format": "cell-based", "procedure": "as §4"}},
  "data": [
    {"molecule": "sodium diperiodatoargentate", "values": [
      {"measurement": "stability in the presence of saline", "setting": "[1]", "value": "same level of stability as the fully hydrated compound"},
      {"measurement": "kill of biofilms", "setting": "[2]; 200 ppm, p<0.05", "value": "significantly higher kill than the fully hydrated sodium diperiodatoargentate"},
      {"measurement": "kill of biofilms", "setting": "[2]; all other concentrations (1.56 ppm to 200 ppm range)", "value": "no significant differences"}
    ]},
    {"molecule": "oxysilver nitrate [reference compound]", "values": [
      {"measurement": "disease severity on foliage", "setting": "[3]", "value": "best at reducing disease severity on foliage"},
      {"measurement": "disease severity on foliage", "setting": "[4]; after three treatment sprays, low and high dose", "value": "best at reducing disease severity on foliage"},
      {"measurement": "disease severity on foliage", "setting": "[4]; after two treatment sprays, high dose", "value": "best at reducing disease severity on foliage"},
      {"measurement": "disease severity on foliage", "setting": "[5]", "value": "best at reducing disease severity on foliage"}
    ]},
    {"molecule": "O=[N+]([O-])[O-].[Ag+]", "note": "[silver nitrate, reference compound]", "values": [
      {"measurement": "MBC, effective level", "setting": "[6]; 1.56% feces", "value": "< 7.8", "unit": "ppm"},
      {"measurement": "MBC, effective level", "setting": "[6]; 3.13% feces", "value": "< 7.8", "unit": "ppm"},
      {"measurement": "MBC, effective level", "setting": "[6]; 6.25% feces", "value": "< 7.8", "unit": "ppm"},
      {"measurement": "MBC, effective level", "setting": "[6]; 12.5% feces", "value": 15.6, "unit": "ppm"},
      {"measurement": "MBC, effective level", "setting": "[6]; 25% feces", "value": 31.25, "unit": "ppm"},
      {"measurement": "MBC, effective level", "setting": "[6]; 50% feces", "value": 62.5, "unit": "ppm"},
      {"measurement": "MBEC effectiveness compared with silver(III) periodate", "setting": "[6]; in the presence of feces", "value": "more effective than silver(III) periodate in higher concentrations of feces but less effective in lower concentrations"},
      {"measurement": "MBC cut-off point", "setting": "[7]; 50.0% urine", "value": 31.25, "unit": "ppm"},
      {"measurement": "MBC cut-off point", "setting": "[7]; 100% urine", "value": 62.5, "unit": "ppm"},
      {"measurement": "log reduction", "setting": "[7]; 500 and 250 ppm, all tested concentrations of urine", "value": "approximately equal log reductions"},
      {"measurement": "log reduction compared with the other compound", "setting": "[7]; compound concentrations of 125 ppm and below", "value": "larger log reduction in the higher concentrations of urine"},
      {"measurement": "killing", "setting": "P. aeruginosa ATCC 27853; in the presence of 1% NaCl or 1% K2HPO4", "value": "unable to kill at any of the tested concentrations"},
      {"measurement": "killing", "setting": "P. aeruginosa ATCC 27853; no salt and 1% K2SO4", "value": "effective at killing all the cells for the entire challenge range"},
      {"measurement": "log reduction compared with the other compound", "setting": "[8]; mucin 0.5% and lower, higher compound concentrations", "value": "better log reductions"},
      {"measurement": "log reduction, trend with compound concentration", "setting": "[8]; regardless of the concentration of mucin", "value": "the lower the concentration of silver nitrate, the lower the log reduction was"},
      {"measurement": "log reduction, trend with compound concentration", "setting": "[9]; human serum 1% or 0.001%", "value": "no effect on the log reduction"},
      {"measurement": "log reduction, trend with compound concentration", "setting": "[9]; human serum 50%, 10%, and 0.1%", "value": "log reductions decreased significantly with a decrease in the concentration of silver nitrate"},
      {"measurement": "log reduction, trend with compound concentration", "setting": "[10]", "value": "Log reductions decreased with a decrease in concentration of silver nitrate"},
      {"measurement": "log reduction compared with the other compound", "setting": "[11]; 0.001% human serum, 500 ppm", "value": "higher log reduction only at 500 ppm with a two magnitude difference"},
      {"measurement": "killing activity", "setting": "[11]; 0.1% and 0.01% human serum", "value": "no significant killing activity"}
    ]}
  ]
}
